Laboratory results published in patent US20100268321A1, “DRUG-RELEASING GRAFT” (C R BARD, INC., priority 2005, published 2010).

Assay: Controlled release study: release of chlorhexidine acetate (ChAc) from drug-loaded ePTFE vascular cuff graft sections into PBS, UV absorbance
Assay type: physicochemical
Conditions: from ePTFE cuff section in PBS
Protocol: With respect to a vascular cuff graft, examples of which are shown in FIGS. 2 and 3, experimentation was conducted to study the release of a drug without a polymeric carrier from the cuff surface. The drug chosen for the experiment was chlorhexidine acetate (ChAc) and the release time was scheduled for nine weeks. The materials and methods of the experiment included creating a calibration curve, preparing the vascular cuff grafts, and measuring absorbance, each of which is described in detail below.
Initially, a calibration curve was created to determine the concentration of ChAc in phosphate buffered saline (PBS). […] The absorbance of each of these solutions was determined using the Shimadzu UV-1601 spectrophotometer. A curve of absorbance versus concentration was expected to be linear. […]
To prepare the vascular cuff grafts, the drug was embedded therein using the following procedure. […] The cuff section weights with the loaded drug were then determined and recorded. The cuff section weights without the loaded drug were determined after the study by washing the cuffs with ethanol and drying. […]
Absorbance was measured to determine the amount of drug released from the cuff sections. […] The PBS solutions were then analyzed using the Shimadzu UV 1600 spectrophotometer. […] The absorbance at ˜286 nm was recorded by automatic peak detection by the spectrophotometer. […]

Question: Which “levels of the drug in release medium” value (after nine weeks) does the source give for `CC(=O)O.CC(=O)O.NC(=N\CCCCCC/N=C(N)/N=C(\N)Nc1ccc(Cl)cc1)/N=C(\N)Nc1ccc(Cl)cc1` [ChAc, chlorhexidine acetate] here?
Answer: Its value is “still detectable”.

Question: And the drug released (after one day)?
Answer: The drug released was “approximately 50%”.
